Measured values taken from patent US20190284168A1, “PYRAZOLE DERIVATIES AS SGC STIMULATORS” (IRONWOOD PHARMACEUTICALS, INC., priority 2014, published 2019).

Target: T1, sGC enzyme (Homo sapiens, UniProt Q02108+Q02153)
T1 construct: host or cells: HEK293 cells expressing GloSensor 40F cGMP
T1 sequence (Q02153 1-619): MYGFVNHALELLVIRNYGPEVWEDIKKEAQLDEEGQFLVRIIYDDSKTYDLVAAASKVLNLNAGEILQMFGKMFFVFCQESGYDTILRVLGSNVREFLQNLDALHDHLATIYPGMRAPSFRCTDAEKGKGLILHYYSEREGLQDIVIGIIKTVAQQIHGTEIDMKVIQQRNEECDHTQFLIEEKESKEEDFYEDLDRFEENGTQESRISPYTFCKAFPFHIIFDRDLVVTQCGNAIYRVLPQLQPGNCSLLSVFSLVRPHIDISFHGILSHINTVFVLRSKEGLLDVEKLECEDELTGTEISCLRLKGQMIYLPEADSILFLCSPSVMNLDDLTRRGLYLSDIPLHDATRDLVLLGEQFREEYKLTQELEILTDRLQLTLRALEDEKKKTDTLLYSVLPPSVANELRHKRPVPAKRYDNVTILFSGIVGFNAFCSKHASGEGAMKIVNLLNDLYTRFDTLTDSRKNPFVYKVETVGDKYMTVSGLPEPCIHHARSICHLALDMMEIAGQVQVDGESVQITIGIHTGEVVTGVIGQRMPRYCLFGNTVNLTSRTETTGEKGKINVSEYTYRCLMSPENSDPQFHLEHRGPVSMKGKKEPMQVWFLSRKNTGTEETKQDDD
T1 sequence (Q02108 1-690): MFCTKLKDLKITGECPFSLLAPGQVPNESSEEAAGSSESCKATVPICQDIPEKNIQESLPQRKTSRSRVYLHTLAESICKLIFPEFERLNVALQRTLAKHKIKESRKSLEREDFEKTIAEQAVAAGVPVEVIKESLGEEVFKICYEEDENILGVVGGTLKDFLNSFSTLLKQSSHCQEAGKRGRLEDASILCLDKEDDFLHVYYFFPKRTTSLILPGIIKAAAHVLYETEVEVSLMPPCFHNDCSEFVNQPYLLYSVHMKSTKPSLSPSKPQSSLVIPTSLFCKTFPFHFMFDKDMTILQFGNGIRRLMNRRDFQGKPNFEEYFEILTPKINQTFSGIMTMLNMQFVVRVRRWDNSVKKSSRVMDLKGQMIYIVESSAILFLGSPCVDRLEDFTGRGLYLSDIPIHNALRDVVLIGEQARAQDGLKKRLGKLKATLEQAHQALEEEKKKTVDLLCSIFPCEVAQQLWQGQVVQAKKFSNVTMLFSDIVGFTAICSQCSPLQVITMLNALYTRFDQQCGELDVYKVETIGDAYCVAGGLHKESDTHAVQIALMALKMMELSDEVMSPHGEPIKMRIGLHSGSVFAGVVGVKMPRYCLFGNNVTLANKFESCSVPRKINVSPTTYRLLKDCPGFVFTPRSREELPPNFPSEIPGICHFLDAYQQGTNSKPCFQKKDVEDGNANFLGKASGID
Assay: cGMP GloSensor cell-based assay, 384-well format
Conditions: read-out: sGC_HEK_GloSensor EC50/IC50 Abs (Norm) (nM) Binned (~)
Text: Human embryonic kidney cells (HEK293) cells expressing GloSensor™ 40F cGMP (Part No: CS182801, Promega) were used to evaluate the activity of test compounds. The luminescent biosensors (engineered luciferase) that were incorporated into these cells detect cGMP formed by the compounds stimulating the sGC enzyme and emit luminescence.
cGMP GloSensor cells were maintained in Dulbecco's Modification of Eagle's Medium (DMEM) supplemented with fetal bovine serum (FBS) (10% final) and hygromycine (200 ug/ml). The day before assay, cells were plated in DMEM with 10% FBS in a 50 μL volume at a density of 1.5×10^4 cells/well in a poly-D-lysine coated 384-well flat white-bottom plate (Corning Cat No 35661). Cells were incubated overnight at 37° C. in a humidified chamber with 5% CO2. The next day, medium was removed and cells were replaced with 40 ul/well of GloSensor™, 2 mM (Promega Cat No E1291). Cells were treated for 90 minutes at 25° C. to allow the substrate to equilibrate in the cells. Test compounds and Diethylenetriamine NONOate (DETA-NONOate) was diluted to 3 mM (20×) in serum-free CO2 independent medium and serially diluted at 4× dilutions to create 5× dose curve from which 10 ul was added to the wells (x μM concentration for test compound solution and 10 μM concentration for DETA-NONOate solution; wherein x is one of the following final concentrations). • 30000 nM • 7500 nM • 1875 nM • 468.75 nM • 117.19 nM • 29.29 nM • 7.32 nM • 1.83 nM • 0.46 nM • 0.114 nM • 0.029 nM
For the kinetics studies, luminescense was measured right away for 0.2 sec per well with Envision (Perkin Elmer model No). For endpoint SAR screening, data were collected after 55 min incubation at room temperature.
Data analysis was carried out as indicated above in Example 2A.

SMILES	EC50
O[C@@H]1CN(c2nc(-c3cc(-c4ccon4)n(Cc4ccccc4F)n3)ncc2F)C[C@H]1O (racemic) [Compound 167, trans-1-(5-fluoro-2-(1-(2-fluorobenzyl)-5-(isoxazol-3-yl)-1H-pyrazol-3-yl)pyrimidin-4-yl)pyrrolidine-3,4-diol]	< 100 nM
O=c1[nH]c(-c2cc(-c3ccsn3)n(Cc3ccccc3F)n2)ncc1F [Compound 111]	< 100 nM
O=c1[nH]c(-c2cc(-c3ccon3)n(CCC(F)(F)C(F)(F)F)n2)ncc1F [Compound 128, 5-fluoro-2-(5-(isoxazol-3-yl)-1-(3,3,4,4,4-pentafluorobutyl)-1H-pyrazol-3-yl)pyrimidin-4(3H)-one]	> 1000 nM
CC(C)(C)OC(=O)C[C@H]1C[C@@H](CCNc2nc(-c3cc(-c4ccon4)n(Cc4ccccc4F)n3)ncc2F)OC(C)(C)O1 [Compound 132]	< 100 nM
O=C1C[C@H](O)C[C@@H](CCNc2nc(-c3cc(-c4ccon4)n(Cc4ccccc4F)n3)ncc2F)O1 [Compound 133, (4R,6R)-6-(2-((5-fluoro-2-(1-(2-fluorobenzyl)-5-(isoxazol-3-yl)-1H-pyrazol-3-yl)pyrimidin-4-yl)amino)ethyl)-4-hydroxytetrahydro-2H-pyran-2-one]	< 100 nM
O=C(O)C[C@H](O)C[C@H](O)CCNc1nc(-c2cc(-c3ccon3)n(Cc3ccccc3F)n2)ncc1F [Compound 134, (3R,5R)-7-((5-fluoro-2-(1-(2-fluorobenzyl)-5-(isoxazol-3-yl)-1H-pyrazol-3-yl)pyrimidin-4-yl)amino)-3,5-dihydroxyheptanoic acid]	100 to 1000 nM
OC(CNc1nc(-c2cc(-c3ncco3)n(Cc3ccccc3F)n2)ncc1F)(C(F)(F)F)C(F)(F)F [Compound 141]	100 to 1000 nM
Fc1cnc(-c2cc(-c3ccon3)n(Cc3cccc(F)c3F)n2)nc1 [Compound 142]	> 1000 nM
Oc1nc(-c2cc(-c3ccon3)n(Cc3ncccc3F)n2)ncc1F [Compound 143, 5-fluoro-2-(1-((3-fluoropyridin-2-yl)methyl)-5-(isoxazol-3-yl)-1H-pyrazol-3-yl)pyrimidin-4(3H)-one]	> 1000 nM
Fc1cnc(-c2cc(-c3ccon3)n(Cc3ncccc3F)n2)nc1 [Compound 144]	> 1000 nM
Nc1ccnc(-c2cc(-c3ccon3)n(Cc3ncccc3F)n2)n1 [Compound 145]	> 1000 nM
Nc1nc(-c2cc(-c3ccon3)n(Cc3ncccc3F)n2)ncc1F [Compound 146]	100 to 1000 nM
CN(CC(O)c1ccc(O)c(O)c1)c1nc(-c2cc(-c3ccon3)n(Cc3ccccc3F)n2)ncc1F (stereo not drawn) [Compound 168, 4-(2-((5-fluoro-2-(1-(2-fluorobenzyl)-5-(isoxazol-3-yl)-1H-pyrazol-3-yl)pyrimidin-4-yl)(methyl)amino)-1-hydroxyethyl)benzene-1,2-diol]	< 100 nM
O[C@@H]1CN(c2nc(-c3cc(-c4ccon4)n(Cc4ccccc4F)n3)ncc2F)C[C@@H]1O [Compound 169, cis-1-(5-fluoro-2-(1-(2-fluorobenzyl)-5-(isoxazol-3-yl)-1H-pyrazol-3-yl)pyrimidin-4-yl)pyrrolidine-3,4-diol]	< 100 nM
OCCN1CCN(c2nc(-c3cc(-c4ccon4)n(Cc4ccccc4F)n3)ncc2F)CC1 [Compound 170, 2-(4-(5-fluoro-2-(1-(2-fluorobenzyl)-5-(isoxazol-3-yl)-1H-pyrazol-3-yl)pyrimidin-4-yl)piperazin-1-yl)ethanol]	< 100 nM
COC(=O)C1CCN(c2nc(-c3cc(-c4ccon4)n(Cc4ccccc4F)n3)ncc2F)CC1 [Compound 171, methyl 1-(5-fluoro-2-(1-(2-fluorobenzyl)-5-(isoxazol-3-yl)-1H-pyrazol-3-yl)pyrimidin-4-yl)piperidine-4-carboxylate]	< 100 nM
COC(=O)CCN(C)c1nc(-c2cc(-c3ccon3)n(Cc3ccccc3F)n2)ncc1F [Compound 172, methyl 3-((5-fluoro-2-(1-(2-fluorobenzyl)-5-(isoxazol-3-yl)-1H-pyrazol-3-yl)pyrimidin-4-yl)(methyl)amino)propanoate]	< 100 nM

SMILES	EC50
NCC(=O)OC1CCN(c2nc(-c3cc(-c4ccon4)n(Cc4ccccc4F)n3)ncc2F)CC1 [Compound 173, 1-(5-fluoro-2-(1-(2-fluorobenzyl)-5-(isoxazol-3-yl)-1H-pyrazol-3-yl)pyrimidin-4-yl)piperidin-4-yl 2-aminoacetate]	< 100 nM
COC(=O)CCCNc1nc(-c2cc(-c3ccon3)n(Cc3ccccc3F)n2)ncc1F [Compound 174, methyl 4-((5-fluoro-2-(1-(2-fluorobenzyl)-5-(isoxazol-3-yl)-1H-pyrazol-3-yl)pyrimidin-4-yl)amino)butanoate]	< 100 nM
COC(=O)CCCCNc1nc(-c2cc(-c3ccon3)n(Cc3ccccc3F)n2)ncc1F [Compound 175, methyl 5-((5-fluoro-2-(1-(2-fluorobenzyl)-5-(isoxazol-3-yl)-1H-pyrazol-3-yl)pyrimidin-4-yl)amino)pentanoate]	< 100 nM
OCCCCNc1nc(-c2cc(-c3ccon3)n(Cc3ccccc3F)n2)ncc1F [Compound 176, 4-((5-fluoro-2-(1-(2-fluorobenzyl)-5-(isoxazol-3-yl)-1H-pyrazol-3-yl)pyrimidin-4-yl)amino)butan-1-ol]	< 100 nM
NCC(=O)OCCCNc1nc(-c2cc(-c3ccon3)n(Cc3ccccc3F)n2)ncc1F [Compound 177, 3-((5-fluoro-2-(1-(2-fluorobenzyl)-5-(isoxazol-3-yl)-1H-pyrazol-3-yl)pyrimidin-4-yl)amino)propyl 2-aminoacetate]	< 100 nM
NCC(=O)OCCCCNc1nc(-c2cc(-c3ccon3)n(Cc3ccccc3F)n2)ncc1F [Compound 178, 4-((5-fluoro-2-(1-(2-fluorobenzyl)-5-(isoxazol-3-yl)-1H-pyrazol-3-yl)pyrimidin-4-yl)amino)butyl 2-aminoacetate]	< 100 nM
Cc1ccc(Cn2nc(-c3ncc(F)c(O)n3)cc2-c2ccon2)cc1 [Compound 185]	< 100 nM
Cn1cc(Cn2nc(-c3ncc(F)c(O)n3)cc2-c2ccon2)cn1 [Compound 186]	> 1000 nM
Cc1ccc(Cn2nc(-c3ncc(F)c(O)n3)cc2-c2ccon2)cc1F [Compound 188]	< 100 nM
Oc1nc(-c2cc(-c3ccon3)n(Cc3cccnc3)n2)ncc1F [Compound 189]	> 1000 nM
Cc1cc(Cn2nc(-c3ncc(F)c(O)n3)cc2-c2ccon2)on1 [Compound 190]	100 to 1000 nM
CCOC(=O)C(C)(C)c1nnc(-c2cc(-c3ccon3)n(Cc3ccccc3F)n2)nc1O [Compound 191]	100 to 1000 nM
CCOC(=O)C(C)(C)c1nc(-c2cc(-c3ccon3)n(Cc3ccccc3F)n2)nnc1O [Compound 192]	> 1000 nM
Oc1nc(-c2cc(-c3ccon3)n(Cc3cccc(F)c3)n2)ncc1F [Compound 197]	100 to 1000 nM
CC(=O)c1cc(-c2nncc(N)n2)nn1Cc1ccccc1F [Compound 198]	> 1000 nM
CC(=O)c1cc(-c2nncc(O)n2)nn1Cc1ccccc1F [Compound 201]	> 1000 nM
